Reference: patent US11230535B2, “CFTR regulators and methods of use thereof” (THE REGENTS OF THE UNIVERSITY OF CALIFORNIA, priority 2015, dated 2022)

biological target: human wild-type CFTR (Homo sapiens, UniProt P13569); experiment: Cell-based plate reader (YFP iodide influx) assay of CFTR function; parameters: expressed in transfected cells; host or cells: Fischer rat thyroid (FRT) cells stably co-expressing YFP-H148Q; conditions: N,N-diethyl-N′-aryl-1,3,5-triazine diamine analogs; read-out: EC50 for CFTR activation
Sequence (P13569 whole entry): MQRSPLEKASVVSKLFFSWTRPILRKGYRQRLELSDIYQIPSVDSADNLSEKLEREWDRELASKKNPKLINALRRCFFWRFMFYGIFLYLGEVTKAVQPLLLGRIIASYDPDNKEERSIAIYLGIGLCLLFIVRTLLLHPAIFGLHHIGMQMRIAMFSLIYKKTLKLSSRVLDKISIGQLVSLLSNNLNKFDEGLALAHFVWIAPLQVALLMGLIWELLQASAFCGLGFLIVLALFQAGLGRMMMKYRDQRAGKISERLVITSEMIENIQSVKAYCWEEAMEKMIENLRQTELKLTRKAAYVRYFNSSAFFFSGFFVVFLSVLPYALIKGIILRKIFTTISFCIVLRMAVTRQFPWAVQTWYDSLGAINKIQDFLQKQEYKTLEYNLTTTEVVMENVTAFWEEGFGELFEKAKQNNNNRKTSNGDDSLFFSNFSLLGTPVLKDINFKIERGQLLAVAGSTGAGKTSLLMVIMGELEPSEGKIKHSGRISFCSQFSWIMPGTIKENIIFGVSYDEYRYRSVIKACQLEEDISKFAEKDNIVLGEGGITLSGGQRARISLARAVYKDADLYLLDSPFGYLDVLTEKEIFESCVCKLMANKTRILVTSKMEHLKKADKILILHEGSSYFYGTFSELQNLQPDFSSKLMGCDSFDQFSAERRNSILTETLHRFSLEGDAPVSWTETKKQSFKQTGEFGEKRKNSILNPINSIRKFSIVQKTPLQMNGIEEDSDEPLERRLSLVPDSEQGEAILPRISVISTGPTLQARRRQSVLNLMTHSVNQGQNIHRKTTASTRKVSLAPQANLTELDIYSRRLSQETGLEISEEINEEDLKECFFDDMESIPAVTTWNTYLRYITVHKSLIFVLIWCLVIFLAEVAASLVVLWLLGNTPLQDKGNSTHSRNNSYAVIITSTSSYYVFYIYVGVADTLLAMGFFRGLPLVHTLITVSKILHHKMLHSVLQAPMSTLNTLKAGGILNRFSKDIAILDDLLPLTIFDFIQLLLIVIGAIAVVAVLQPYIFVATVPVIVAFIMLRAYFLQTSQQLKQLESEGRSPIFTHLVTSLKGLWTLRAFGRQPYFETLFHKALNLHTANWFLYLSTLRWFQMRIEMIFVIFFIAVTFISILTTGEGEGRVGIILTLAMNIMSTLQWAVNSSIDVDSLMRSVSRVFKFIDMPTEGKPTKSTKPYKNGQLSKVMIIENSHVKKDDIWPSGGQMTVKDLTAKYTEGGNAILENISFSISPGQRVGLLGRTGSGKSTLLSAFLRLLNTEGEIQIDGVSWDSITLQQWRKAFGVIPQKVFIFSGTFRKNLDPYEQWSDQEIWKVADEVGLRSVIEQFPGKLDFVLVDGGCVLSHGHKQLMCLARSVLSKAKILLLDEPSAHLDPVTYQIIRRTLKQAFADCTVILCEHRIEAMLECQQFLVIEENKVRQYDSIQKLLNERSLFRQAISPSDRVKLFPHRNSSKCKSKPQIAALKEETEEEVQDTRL
Experimental: The initiate rate of I^− influx was computed by determined using exponential regression. All compound plates contained negative controls (DMSO vehicle) and positive controls (20 μM forskolin).
High-throughput screening. […] The initiate rate of I^− influx was computed by determined using exponential regression. All compound plates contained negative controls (DMSO vehicle) and positive controls ([…] forskolin).
Platereader assays of chloride channel function. CFTR activity was assayed as described. […] I^− influx was measured in a plate reader with initial baseline read for 2 s and then for 12 s after rapid addition of an I^−-containing solution. TMEM16A activity was assayed similarly as described using FRT cells co-expressing YFP and TMEM16A. Activity of non-TMEM16A CaCC was assayed as described in HT-29 cells expressing YFP. In each assay initial rates of I^− influx were computed as a linear measure of channel function.

Row | SMILES | EC50 [nM]
1 | CCN(CC)c1nc(Nc2cccc(Cl)c2)nc(OCC(F)(F)C(F)F)n1 [7d, N′-(3-Chlorophenyl)-N,N-diethyl-6-(2,2,3,3-tetrafluoropropoxy)-1,3,5-triazine-2,4-diamine] | 5400
2 | CCN(CC)c1nc(Nc2cccc(C(=O)O)c2)nc(OC(C(F)(F)F)C(F)(F)F)n1 [6a, 3-({4-(diethylamino)-6-[(1,1,1,3,3,3-hexafluoropropan-2-yl)oxy]-1,3,5-triazin-2-yl}amino)benzoic acid] | 160
3 | CCN(CC)c1nc(Nc2ccc(F)cc2)nc(OCC(F)(F)C(F)F)n1 [7g, N,N-Diethyl-N′-(4-fluorophenyl)-6-(2,2,3,3-tetrafluoropropoxy)-1,3,5-triazine-2,4-diamine] | 4800
4 | CCN(CC)c1nc(Nc2cccc([N+](=O)[O-])c2)nc(OCC(F)(F)C(F)F)n1 [7e, N,N-Diethyl-N′-(3-nitrophenyl)-6-(2,2,3,3-tetrafluoropropoxy)-1,3,5-triazine-2,4-diamine] | 1200
5 | CCN(CC)c1nc(Nc2ccc(C(=O)O)cc2)nc(OC(C(F)(F)F)C(F)(F)F)n1 [6e, 4-({4-(Diethylamino)-6-[(1,1,1,3,3,3-hexafluoropropan-2-yl)oxy]-1,3,5-triazin-2-yl}amino)benzoic acid] | 900
6 | CCN(CC)c1nc(Nc2ccc(F)cc2)nc(OC(C(F)(F)F)C(F)(F)F)n1 [6f, N,N-Diethyl-N′-(4-fluorophenyl)-6-[(1,1,1,3,3,3-hexafluoropropan-2-yl)oxy]-1,3,5-triazine-2,4-diamine] | 700
7 | CCN(CC)c1nc(Nc2cccc(C(=O)O)c2)nc(OCC(F)(F)C(F)F)n1 [7b, 3-{[4-(Diethylamino)-6-(2,2,3,3-tetrafluoropropoxy)-1,3,5-triazin-2-yl]amino}benzoic acid] | 500
8 | CCN(CC)c1nc(Nc2ccccc2)nc(OCC(F)(F)C(F)F)n1 [7a, N,N-Diethyl-N′-phenyl-6-(2,2,3,3-tetrafluoropropoxy)-1,3,5-triazine-2,4-diamine] | 2000
9 | CCN(CC)c1nc(Nc2ccc([N+](=O)[O-])cc2)nc(OC(C(F)(F)F)C(F)(F)F)n1 [6g, N,N-Diethyl-6-[(1,1,1,3,3,3-hexafluoropropan-2-yl)oxy]-N-(4-nitrophenyl)-1,3,5-triazine-2,4-diamine] | 18000

Other lines, results leading:

Row | EC50 [nM] | SMILES
10 | 1600 | CCN(CC)c1nc(Nc2cccc(F)c2)nc(OCC(F)(F)C(F)F)n1 [7c, N,N-Diethyl-N′-(3-fluorophenyl)-6-(2,2,3,3-tetrafluoropropoxy)-1,3,5-triazine-2,4-diamine]
11 | 140 | CCN(CC)c1nc(Nc2cccc(F)c2)nc(OC(C(F)(F)F)C(F)(F)F)n1 [6b, N,N-Diethyl-N′-(3-fluorophenyl)-6-[(1,1,1,3,3,3-hexafluoropropan-2-yl)oxy]-1,3,5-triazine-2,4-diamine]

same assay, conditions: bicyclic aniline analogs; read-out: EC50

Row | EC50 [nM] | SMILES
12 | 2800 | CCN(CC)c1nc(Nc2ccc3cn[nH]c3c2)nc(OC(C(F)(F)F)C(F)(F)F)n1 [6i, N,N-Diethyl-6-[(1,1,1,3,3,3-hexafluoropropan-2-yl)oxy]-N-(1H-indazol-6-yl)-1,3,5-triazine-2,4-diamine]

same assay, conditions: commercial analogs; FRT cells with YFP and wildtype CFTR, 125 nM forskolin

Row | SMILES | % Activation [%]
13 | Cc1ccccc1Nc1nc(OCC(F)(F)F)nc(OCC(F)(F)F)n1 [K019] | 28
14 | CCOc1nc(NCCO)nc(Nc2ccc(I)cc2)n1 [K043] | 19
15 | CCOc1nc(Nc2ccc(Cl)cc2)nc(NC2CCCCC2)n1 [K038] | 53
16 | C=CCNc1nc(Nc2ccc(OC(F)(F)Cl)cc2)nc(OCC(F)(F)F)n1 [K076] | 46
17 | C=CCNc1nc(Nc2ccc(Cl)cc2)nc(OC)n1 [K034] | 73
18 | CCC(C)Nc1nc(Nc2ccc([N+](=O)[O-])cc2)nc(OC(C(F)(F)F)C(F)(F)F)n1 (centres unmarked) [K056] | 38
19 | COc1nc(NCCO)nc(Nc2ccc(Cl)cc2)n1 [K033] | 22
20 | C=CCNc1nc(Nc2cccc([N+](=O)[O-])c2)nc(OC(C(F)(F)F)C(F)(F)F)n1 [K059] | 90
21 | O=[N+]([O-])c1cccc(Nc2nc(OC(C(F)(F)F)C(F)(F)F)nc(OC(C(F)(F)F)C(F)(F)F)n2)c1 [K014] | 18
22 | Cc1cc(I)ccc1Nc1nc(NCCN2CCOCC2)nc(OCC(F)(F)F)n1 [K091] | 43
23 | CCCCNc1nc(Nc2ccc(OC(F)(F)F)cc2)nc(OCC(F)(F)F)n1 [K030] | 16
24 | C=CCNc1nc(Nc2ccc(-c3nc4ccccc4o3)cc2)nc(OCC)n1 [K067] | 49
25 | Cc1ccccc1Nc1nc(OC(C(F)(F)F)C(F)(F)F)nc(OC(C(F)(F)F)C(F)(F)F)n1 [K012] | 19
26 | COc1nc(NCCO)nc(Nc2ccc(I)cc2)n1 [K040] | 17
27 | CC(=O)c1ccc(Nc2nc(OC(C(F)(F)F)C(F)(F)F)nc(OC(C(F)(F)F)C(F)(F)F)n2)cc1 [K016] | 19
28 | Cc1ccc(Nc2nc(OC(C(F)(F)F)C(F)(F)F)nc(N3CCCCC3)n2)cc1 [K061] | 31
29 | C=CCNc1nc(Nc2ccc(OC(F)(F)Cl)cc2)nc(OCC(F)(F)F)n1 [K077] | 29

Row | SMILES | % Activation [%]
30 | FC(F)(F)COc1nc(NCc2ccccc2)nc(Nc2ccc(OC(F)(F)F)cc2)n1 [K082] | 28
31 | C=CCNc1nc(Nc2ccc([N+](=O)[O-])cc2)nc(OCC)n1 [K050] | 66
32 | OCCNc1nc(Nc2ccc(OC(F)(F)Cl)cc2)nc(OCC(F)(F)F)n1 [K078] | 28
33 | CCOc1nc(NCCN2CCOCC2)nc(Nc2ccc(I)cc2)n1 [K045] | 15
34 | CN1CCN(c2nc(Nc3ccc(OC(F)(F)F)cc3)nc(OCC(F)(F)F)n2)CC1 [K074] | 25
35 | COc1nc(Nc2ccccc2)nc(Nc2ccccc2)n1 [K008] | 32
36 | O=[N+]([O-])c1ccccc1Nc1nc(OCC(F)(F)F)nc(OCC(F)(F)F)n1 [K005] | 29
37 | COc1nc(Nc2ccc(Cl)cc2)nc(NC2CCCCC2)n1 [K035] | 55
38 | CN1CCN(c2nc(Nc3ccc(OC(F)(F)Cl)cc3)nc(OCC(F)(F)F)n2)CC1 [K071] | 25
39 | O=[N+]([O-])c1ccccc1Nc1nc(OC(C(F)(F)F)C(F)(F)F)nc(OC(C(F)(F)F)C(F)(F)F)n1 [K013] | 15
40 | CN(C)c1nc(Nc2ccc(OC(F)(F)Cl)cc2)nc(OCC(F)(F)F)n1 [K075] | 32
41 | COc1nc(Nc2ccc(OC)c(Cl)c2)nc(OC)n1 [K028] | 23
42 | FC(F)(F)C(Oc1nc(Nc2ccc(Cl)cc2)nc(N2CCOCC2)n1)C(F)(F)F [K065] | 38
43 | C=CCNc1nc(OC(C(F)(F)F)C(F)(F)F)nc(N(c2ccccc2)c2ccccc2)n1 [K058] | 37
44 | CCOc1nc(Nc2ccc([N+](=O)[O-])cc2)nc(NC2CCCCC2)n1 [K051] | 45
45 | CNc1nc(Nc2ccc(C(C)=O)cc2)nc(OC(C(F)(F)F)C(F)(F)F)n1 [K001] | 32

More lines, now with the values ahead:

Row | % Activation [%] | SMILES
46 | 26 | FC(F)(F)COc1nc(NCc2ccccc2)nc(Nc2ccc(OC(F)(F)Cl)cc2)n1 [K080]
47 | 60 | FC(F)(F)COc1nc(Nc2ccccc2)nc(OCC(F)(F)F)n1 [K018]
48 | 55 | C=CCNc1nc(Nc2ccc(I)cc2)nc(OCC)n1 [K044]
49 | 54 | FC(F)(F)COc1nc(Nc2ccc(OC(F)(F)Cl)cc2)nc(NC2CC2)n1 [K083]
50 | 37 | FC(F)(F)COc1nc(Nc2ccc(OC(F)(F)Cl)cc2)nc(N2CCOCC2)n1 [K069]
51 | 16 | CC(C)(C)Nc1nc(Nc2ccc(OC(F)(F)F)cc2)nc(OCC(F)(F)F)n1 [K003]
52 | 37 | CNc1nc(OCC(F)(F)F)nc(N(c2ccccc2)c2ccccc2)n1 [K020]
53 | 57 | CCOc1nc(Nc2ccccc2)nc(NC2CCCC2)n1 [K009]
54 | 35 | C=CCNc1nc(Nc2ccc(I)cc2)nc(OC)n1 [K041]
55 | 40 | CC(=O)N1CCN(c2nc(Nc3ccccc3C(=O)c3ccccc3)nc(OC(C(F)(F)F)C(F)(F)F)n2)CC1 [K064]
56 | 38 | COc1ccc(Nc2nc(NC3CCCCC3)nc(OC(C(F)(F)F)C(F)(F)F)n2)cc1 [K060]
57 | 16 | FC(F)(F)C(Oc1nc(Nc2cccc3ccccc23)nc(OC(C(F)(F)F)C(F)(F)F)n1)C(F)(F)F [K004]
58 | 21 | CNc1nc(Nc2ccccc2C(F)(F)F)nc(OC(C(F)(F)F)C(F)(F)F)n1 [K007]
59 | 16 | CCOc1nc(Nc2ccc(I)cc2)nc(NC2CCCCC2)n1 [K046]
60 | 20 | CC(C)Nc1nc(Nc2ccc([N+](=O)[O-])cc2)nc(OC(C(F)(F)F)C(F)(F)F)n1 [K027]
61 | 33 | CCCCCCNc1nc(Nc2ccc([N+](=O)[O-])cc2)nc(OCC)n1 [K088]
62 | 20 | Cc1ccc(Nc2nc(OC(C(F)(F)F)C(F)(F)F)nc(OC(C(F)(F)F)C(F)(F)F)n2)cc1 [K011]
63 | 16 | FC(F)(F)C(Oc1nc(Nc2cccnc2)nc(OC(C(F)(F)F)C(F)(F)F)n1)C(F)(F)F [K017]
64 | 28 | FC(F)(F)COc1nc(Nc2ccc(OC(F)(F)Cl)cc2)nc(N2CCCCC2)n1 [K070]
65 | 49 | Fc1ccc(Nc2nc(OC(C(F)(F)F)C(F)(F)F)nc(N3CCCCC3)n2)cc1 [K062]
66 | 20 | CCC(C)Nc1nc(Nc2ccc(OC(F)(F)F)cc2)nc(OCC(F)(F)F)n1 (centres unmarked) [K086]
67 | 47 | CN(C)c1nc(Nc2ccc(Cl)cc2)nc(OCCNC(=O)c2ccc(Cl)cc2)n1 [K087]

same assay, conditions: commercial analogs; read-out: EC50 (full-dose response assay, compounds >80% activation)

Row | EC50 [nM] | SMILES
68 | 750 | C=CCNc1nc(Nc2cccc([N+](=O)[O-])c2)nc(OC(C(F)(F)F)C(F)(F)F)n1 [K059]
